Legend:
Assay in all cases: Determination of MIC values (BHI broth, 96 well microtiter plate)
Format in all cases: cell-based
Streptococcus pneumoniae = conditions: Streptococcus pneumoniae; S. pneu; BHI broth, overnight 37° C.; read-out: MIC S. pneu
Procedure, shortened: (§1)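 Here, each test series spans final concentrations of 25 to 0.39 µg/mL in BHI broth, with DMSO as diluent. Plates seeded at 10^5–10^6 cells/mL are kept at 37° C and approx. 7-10% CO2 for about 16 hours before growth is scored.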

[1] = test system: vancomycin-resistant Enterococcus spp. (VRE); conditions: Enterococcus, VRE, VREF; BHI broth, overnight 37° C.; read-out: MIC VREF
Procedure, shortened: as §1

[2] = test system: methicillin-resistant Staphylococcus aureus (MRSA); conditions: Staphylococcus aureus, MRSA; BHI broth, overnight 37° C.; read-out: MIC MRSA
Procedure, shortened: as §1

SMILES	MIC (Streptococcus pneumoniae)	MIC [1]	MIC [2]
Cn1cc(-c2ccc3cc(Cl)ccc3n2)c2cc(O)ccc21 [Example 221]	< 7 µg/mL	< 7 µg/mL	< 7 µg/mL
Cn1cc(-c2cc(C(=O)NCc3cccc(CN)c3)c3ccccc3n2)c2cc(Br)ccc21 [Example 227]	< 7 µg/mL	< 7 µg/mL	< 7 µg/mL
Cn1cc(-c2ccc3cc(Cl)ccc3n2)c2cc([N+](=O)[O-])ccc21 [Example 232]	< 7 µg/mL	< 7 µg/mL	< 7 µg/mL
O=C(O)c1cc(-c2c[nH]c3ccc(Br)cc23)nc2ccc(C#CCNC3CCCCC3)cc12 [Example 233]	< 25 µg/mL	< 25 µg/mL	> 25 µg/mL
O=C(O)c1cc(-c2c[nH]c3ccc(Br)cc23)nc2ccc(C#CCN3CCCC3)cc12 [Example 234]	> 25 µg/mL	> 25 µg/mL	> 25 µg/mL
NCc1ccc(CNC(=O)c2cc(-c3c[nH]c4ccc(Br)cc34)nc3ccc(C#CCN4CCc5ccccc5C4)cc23)cc1 [Example 240]	> 25 µg/mL	< 25 µg/mL	< 7 µg/mL
NCc1cccc(CNC(=O)c2cc(-c3c[nH]c4ccc(Br)cc34)nc3ccc(C#CCN4CCCC4)cc23)c1 [Example 242]	< 7 µg/mL	< 25 µg/mL	< 7 µg/mL
NCC1CCC(CNC(=O)c2cc(-c3c[nH]c4ccc(Br)cc34)nc3cc(Cl)c(I)cc23)CC1 (stereo not drawn) [Example 244]	< 7 µg/mL	< 7 µg/mL	< 7 µg/mL
NCC1CCCC(CNC(=O)c2cc(-c3c[nH]c4ccc(Br)cc34)nc3cc(Cl)c(I)cc23)C1 (stereo not drawn) [Example 245]	< 7 µg/mL	< 7 µg/mL	< 7 µg/mL
NCC1CCC(CNC(=O)c2cc(-c3c[nH]c4ccc(Br)cc34)nc3cc(Cl)cc(Cl)c23)CC1 (stereo not drawn) [Example 247]	< 7 µg/mL	< 7 µg/mL	< 7 µg/mL
NCC1CCCC(CNC(=O)c2cc(-c3c[nH]c4ccc(Br)cc34)nc3cc(Cl)cc(Cl)c23)C1 (stereo not drawn) [Example 248]	< 7 µg/mL	< 7 µg/mL	< 7 µg/mL
NCC1CCCC(CNC(=O)c2cc(-c3c[nH]c4ccc(Br)cc34)nc3cc(I)ccc23)C1 (stereo not drawn) [Example 250]	< 7 µg/mL	< 7 µg/mL	< 7 µg/mL
NCC1CCC(CNC(=O)c2cc(-c3c[nH]c4ccc(Br)cc34)nc3cc(I)ccc23)CC1 (stereo not drawn) [Example 251]	< 7 µg/mL	< 7 µg/mL	< 7 µg/mL
NCC1CCC(CNC(=O)c2cc(-c3c[nH]c4ccc(Br)cc34)nc3c(F)cccc23)CC1 (stereo not drawn) [Example 258]	< 7 µg/mL	< 7 µg/mL	< 7 µg/mL
NCC1CCCC(CNC(=O)c2cc(-c3c[nH]c4ccc(Br)cc34)nc3c(F)cccc23)C1 (stereo not drawn) [Example 259]	< 7 µg/mL	< 7 µg/mL	< 7 µg/mL
NCc1ccc(CNC(=O)c2cc(-c3c[nH]c4ccc(Br)cc34)nc3c(C#CCN4CCCCC4)cccc23)cc1 [Example 263]	< 7 µg/mL	< 25 µg/mL	< 25 µg/mL
COc1ccc(NC(=O)CCc2cc(-c3c[nH]c4ccc(Br)cc34)nc3ccc(C#CCN4CCCCC4)cc23)cc1 [Example 266]	< 7 µg/mL	> 25 µg/mL	< 7 µg/mL
NCc1ccc(CNC(=O)c2cc(-c3c[nH]c4ccc(Br)cc34)nc3c(C#CCN4CCSCC4)cccc23)cc1 [Example 271]	< 7 µg/mL	< 25 µg/mL	< 7 µg/mL
NCc1ccc(CNC(=O)c2cc(-c3c[nH]c4ccc(Br)cc34)nc3cc(Cl)c(C#CCN4CCSCC4)cc23)cc1 [Example 272]	< 7 µg/mL	< 7 µg/mL	< 7 µg/mL
NCC1CCC(CNC(=O)c2cc(-c3c[nH]c4ccc(Br)cc34)nc3c(Cl)c(Cl)ccc23)CC1 (stereo not drawn) [Example 277]	< 7 µg/mL	< 7 µg/mL	< 7 µg/mL
NCC1CCCC(CNC(=O)c2cc(-c3c[nH]c4ccc(Br)cc34)nc3c(Cl)c(Cl)ccc23)C1 (stereo not drawn) [Example 278]	< 7 µg/mL	< 7 µg/mL	< 7 µg/mL
NCCNC(=O)c1cc(-c2c[nH]c3ccc(Br)cc23)nc2c(Cl)c(Cl)ccc12 [Example 279]	< 7 µg/mL	< 7 µg/mL	< 7 µg/mL
NC1CCCCC1NC(=O)c1cc(-c2c[nH]c3ccc(Br)cc23)nc2c(Cl)c(Cl)ccc12 (stereo not drawn) [Example 280]	< 7 µg/mL	< 7 µg/mL	< 7 µg/mL

Further lines, results first:

MIC (Streptococcus pneumoniae)	MIC [1]	MIC [2]	SMILES
< 7 µg/mL	< 7 µg/mL	< 7 µg/mL	NCc1ccc(CNC(=O)c2cc(-c3c[nH]c4ccc(Br)cc34)nc3ccc(C#CCNCCc4ccccc4)cc23)cc1 [Example 223]
< 7 µg/mL	< 7 µg/mL	< 7 µg/mL	NCc1ccc(CNC(=O)c2cc(-c3c[nH]c4ccc(Cl)cc34)nc3ccc(I)cc23)cc1 [Example 224]
< 7 µg/mL	< 7 µg/mL	< 7 µg/mL	Cn1cc(-c2cc(C(=O)NCc3cccc(CN)c3)c3cc(I)ccc3n2)c2cc(Cl)ccc21 [Example 225]
< 7 µg/mL	< 25 µg/mL	< 25 µg/mL	NCC1CCC(CNC(=O)c2cc(-c3c[nH]c4ccc(Cl)cc34)nc3ccc(I)cc23)CC1 (stereo not drawn) [Example 226]
> 25 µg/mL	> 25 µg/mL	> 25 µg/mL	NCc1ccc(CNC(=O)c2cc(-c3c[nH]c4ccc(Br)cc34)nc3ccc(/C=C/c4ccccc4)cc23)cc1 [Example 228]
< 7 µg/mL	< 7 µg/mL	< 7 µg/mL	NCc1ccc(CNC(=O)c2cc(-c3c[nH]c4ccc(Cl)cc34)nc3ccc(Br)cc23)cc1 [Example 229]
< 7 µg/mL	< 7 µg/mL	< 7 µg/mL	NCc1ccc(CNC(=O)c2cc(-c3c[nH]c4ccc(Cl)cc34)nc3cc(Br)ccc23)cc1 [Example 230]
< 7 µg/mL	< 7 µg/mL	< 7 µg/mL	NCc1ccc(CNC(=O)c2cc(-c3c[nH]c4ccc(Cl)cc34)nc3c(Br)cccc23)cc1 [Example 231]
< 7 µg/mL	< 7 µg/mL	< 7 µg/mL	NCc1ccc(CNC(=O)c2cc(-c3c[nH]c4ccc(Br)cc34)nc3ccc(C#CCNCCc4ccc(Cl)cc4)cc23)cc1 [Example 235]
< 7 µg/mL	< 7 µg/mL	< 7 µg/mL	NCc1ccc(CNC(=O)c2cc(-c3c[nH]c4ccc(Br)cc34)nc3ccc(C#CCNC4CCCCC4)cc23)cc1 [Example 236]
< 7 µg/mL	< 25 µg/mL	< 7 µg/mL	NCc1ccc(CNC(=O)c2cc(-c3c[nH]c4ccc(Br)cc34)nc3ccc(C#CCN4CCCC4)cc23)cc1 [Example 238]
> 25 µg/mL	< 7 µg/mL	< 7 µg/mL	NCc1ccc(CNC(=O)c2cc(-c3c[nH]c4ccc(Br)cc34)nc3ccc(C#CCN4CCSCC4)cc23)cc1 [Example 239]
< 7 µg/mL	< 7 µg/mL	< 7 µg/mL	NCc1ccc(CNC(=O)c2cc(-c3c[nH]c4ccc(Br)cc34)nc3ccc(C#CCN4CC=CCC4)cc23)cc1 [Example 241]
< 7 µg/mL	< 7 µg/mL	< 7 µg/mL	NCc1cccc(CNC(=O)c2cc(-c3c[nH]c4ccc(Br)cc34)nc3cc(Cl)c(I)cc23)c1 [Example 243]
< 7 µg/mL	< 7 µg/mL	< 7 µg/mL	NCc1cccc(CNC(=O)c2cc(-c3c[nH]c4ccc(Br)cc34)nc3cc(Cl)cc(Cl)c23)c1 [Example 246]
< 7 µg/mL	< 7 µg/mL	< 7 µg/mL	NCc1ccc(CNC(=O)c2cc(-c3c[nH]c4ccc(Br)cc34)nc3cc(I)ccc23)cc1 [Example 249]
< 7 µg/mL	< 7 µg/mL	< 7 µg/mL	NCc1cccc(CNC(=O)c2cc(-c3c[nH]c4ccc(Br)cc34)nc3cc(I)ccc23)c1 [Example 252]
< 7 µg/mL	< 25 µg/mL	< 7 µg/mL	NCc1ccc(CNC(=O)c2cc(-c3c[nH]c4ccc(Br)cc34)nc3ccc(F)cc23)cc1 [Example 253]
< 7 µg/mL	< 7 µg/mL	< 7 µg/mL	NCc1ccc(CNC(=O)c2cc(-c3c[nH]c4ccc(Br)cc34)nc3cc(F)ccc23)cc1 [Example 254]
< 7 µg/mL	< 7 µg/mL	< 7 µg/mL	NCc1ccc(CNC(=O)c2cc(-c3c[nH]c4ccc(Br)cc34)nc3c(F)cccc23)cc1 [Example 256]
< 7 µg/mL	< 7 µg/mL	< 7 µg/mL	NCc1cccc(CNC(=O)c2cc(-c3c[nH]c4ccc(Br)cc34)nc3c(F)cccc23)c1 [Example 257]
< 25 µg/mL	< 25 µg/mL	< 25 µg/mL	NCc1ccc(CNC(=O)c2cc(-c3c[nH]c4c(Cl)cccc34)nc3ccccc23)cc1 [Example 260]
< 25 µg/mL	< 25 µg/mL	< 25 µg/mL	NCc1ccc(CNC(=O)c2cc(-c3c[nH]c4c(Br)cccc34)nc3ccccc23)cc1 [Example 261]
< 7 µg/mL	< 7 µg/mL	< 7 µg/mL	NCc1ccc(CNC(=O)c2cc(-c3c[nH]c4ccc(Br)cc34)nc3cc(C#CCN4CCCCC4)ccc23)cc1 [Example 262]
> 25 µg/mL	< 25 µg/mL	< 25 µg/mL	NCc1ccc(CNC(=O)c2cc(-c3c[nH]c4ccc(Br)cc34)nc3cc(C#CCN4CCSCC4)ccc23)cc1 [Example 270]
< 7 µg/mL	> 25 µg/mL	< 25 µg/mL	NCc1ccc(CNC(=O)c2cc(-c3c[nH]c4ccc(Br)cc34)nc3cc(Cl)c(C#CCNCCc4ccc(Cl)cc4)cc23)cc1 [Example 274]
< 25 µg/mL	< 7 µg/mL	< 7 µg/mL	NCc1ccc(CNC(=O)c2cc(-c3c[nH]c4ccc(Br)cc34)nc3c(Cl)c(Cl)ccc23)cc1 [Example 275]
> 25 µg/mL	< 7 µg/mL	< 7 µg/mL	NCc1cccc(CNC(=O)c2cc(-c3c[nH]c4ccc(Br)cc34)nc3c(Cl)c(Cl)ccc23)c1 [Example 276]

— US6376670B1, “Quinoline-indole antimicrobial agents, uses and compositions related thereto” (Sepracor Inc., priority 1997, dated 2002)
